Measured values as given in patent US12544357B2, “Compositions and methods for the treatment of Plasmodium falciparum malaria” (priority 2021, dated 2026).
Where two headings read alike, the source gives them in different places.

Assays:
[1] = test system: P. falciparum strain 3D7 parasites; test: parasite killing assay, P. falciparum 3D7, pLDH readout; type: cell-based, Plasmodium falciparum; conditions: ring stage
Experimental: P. falciparum strain 3D7 parasites were synchronized to the ring stage and incubated with a dilution series of compound or media control for 48 hours followed by quantification of parasitemia by Plasmodium lactate dehydrogenase assay (pLDH) assay.
(§1) P. falciparum strain 3D7 (Panels A and C) or 3D7 PfGARP KO (Panel B) parasites were synchronized to the ring stage and incubated with a dilution series of compound or media control for 48 hours followed by quantification of parasitemia by pLDH assay.
(§2) A limited structure-activity relationship (SAR) study was then conducted, evaluating 48 analog compounds having the same backbone (black in FIG. 3 inset and FIG. 4), but varying R groups (red) using P. falciparum strain 3D7 and 3D7 PfGARP KO parasites. For the SAR study, 3D7 or 3D7 PfGARP KO parasites were synchronized to the ring stage and incubated with a dilution series of compounds or media control for 48 hours followed by quantification of parasitemia by Plasmodium lactate dehydrogenase assay (pLDH) assay.^30 Each dilution was evaluated in quadruplicate. In all experiments, DMSO concentration was <0.1%.
The small molecule compounds shown in FIG. 4 were tested for their abilities to kill P. falciparum strain 3D7 parasites.

PfGARP-A = PfGARP-A (Plasmodium falciparum, UniProt Q9U0N1); test: surface plasmon resonance (SPR) binding on BiaCore100
PfGARP-A, sequence (Q9U0N1 entry or part of it): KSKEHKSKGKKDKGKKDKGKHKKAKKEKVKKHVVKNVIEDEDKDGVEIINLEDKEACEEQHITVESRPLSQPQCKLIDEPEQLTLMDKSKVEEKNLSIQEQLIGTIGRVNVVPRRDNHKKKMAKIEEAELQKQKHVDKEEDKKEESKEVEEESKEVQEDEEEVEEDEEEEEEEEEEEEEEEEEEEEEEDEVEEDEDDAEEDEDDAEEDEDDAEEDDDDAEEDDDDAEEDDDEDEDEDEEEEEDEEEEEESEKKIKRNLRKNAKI
Description: Drugs were immobilized to a CM5 sensorchip and probed with varying concentrations of full length PfGARP on a BiaCore100.
PfGARP-A was immobilized to a sensorchip and probed with varying concentrations of drug on a BiaCore100.

Human WBC (CD45+) = test: human WBC viability by 7AAD/annexin V flow cytometry; type: cell-based
Experimental: Cells were stained with 7AAD and annexin V and analyzed by flow cytometry to assess viability (7AAD−, annexin V−), necrosis (7AAD+, annexin V−), early apoptosis (7AAD−, annexin V+), and late apoptosis (7AAD+, annexin V+).
Human WBC (CD45+) were incubated in the presence of increasing concentrations of compound ID #9081579 or vehicle alone for 48 hours. Cells were stained with 7AAD and annexin V and analyzed by flow cytometry to assess viability (7AAD−, annexin V−), necrosis (7AAD+, annexin V−), early apoptosis (7AAD−, annexin V+), and late apoptosis (7AAD+, annexin V+).

P. falciparum parasites = test: parasite apoptosis assays (JC-1, TUNEL, ApoStat staining); type: cell-based, Plasmodium falciparum
Experimental: (§3) To assess the morphological effects of compound ID #9081579, 3D7 or 3D7 PfGARP KO parasites were synchronized to the ring stage and incubated with 100 μM 9081579 or vehicle control for 48 hours. […] This induction of apoptosis is further supported by caspase activation and mitochondrial depolarization assays induced by compounds ID #9081579 and ID #9078424 (see FIG. 7).

[2] = test system: P. falciparum 3D7^0087/N9 strain parasites; test: NSG/P. falciparum humanized mouse model, adapted strain; type: in vivo, Plasmodium falciparum; conditions: 100 mg/kg IP every 8 hours for 4 days, adapted strain 3D70087/N9
Experimental: (§4) ID #9081579 was evaluated in the NSG/P. falciparum humanized mouse model. Mice were reconstituted with human RBC, infected with P. falciparum 3D7^0087/N9 strain parasites and treated with drug or vehicle control (100 mg/kg dosed IP every 8 hours for 4 days). Parasitemia was monitored by microscopy.
Just prior to submission, we have repeated this experiment using ID #9081579 and an adapted parasite strain (3D70087/N9).

strain INDO = test: parasite killing in chloroquine and quinine resistant strain INDO; type: cell-based; conditions: Plasmodium falciparum
3D7 parasites = test: morphological effects on 3D7 parasites; type: cell-based, Plasmodium falciparum; conditions: 100 μM, 48 hours
Experimental: (§5) FIG. 6 illustrates the morphological changes that occur when compound ID #9081579 activates parasite apoptosis in P. falciparum strain 3D7 (Panel C), or 3D7 PfGARP KO (Panel B) incubated with 100 μM ID #9081579 (Panels A-B) or vehicle control (Panel A) for 48 hours.
as §3

3D7 PfGARP KO parasites [3] = test: morphological effects on 3D7 PfGARP KO parasites; type: cell-based, Plasmodium falciparum; conditions: 100 μM, 48 hours
Experimental: as §5, §3

[4] = test system: P. falciparum 3D7 strain parasites; test: NSG/P. falciparum humanized mouse model, 3D7; type: in vivo, Plasmodium falciparum; conditions: 100 mg/kg IP every 8 hours for 4 days, Pf3D7
Experimental: as §4, with “Drugs were” for “ID #9081579 was”, “3D7” for “3D7^0087/N9”, “microscopy. Results representative of two independent experiments.” for “microscopy.”
The NSG mouse (NOD scid gamma mouse) is a brand of immunodeficient laboratory mice, which carries the strain non-obese diabetic (NOD). The efficacy of both lead compounds ID #9081579 and ID #9078424 were evaluated in the NSG/P. falciparum humanized mouse model.^32,33,34,35
Briefly, NSG mice (NOD.Cg-Prkdc^scidII2rg^tm1Wjl/SzJ; JAX Cat #005557) were reconstituted with human RBC (huRBC) by daily IP injections with 1 mL of huRBC at 50% hematocrit. On day 12, mice were infected with of 2×10^7 Pf3D7 infected huRBCs via tail vein injection. On day 15, mice were injected IP with ID #9081579 or ID #9078424 at 100 mg/kg final dose (approximately 2 mg per mouse in 5% DMSO/95% PEG400 vehicle) or vehicle alone. Mice were treated with drug or vehicle control every 8 hours for 4 days. This dose and schedule was designed to maintain plasma drug levels above 50 μM, as informed by our single dose PK study in Example 5.

BeWo cells = test: BeWo crystal violet viability assay; type: cell-based, human
Experimental: BeWo, a human choriocarcinoma cell line, were grown in the presence of increasing concentrations of ID #9081579 or vehicle alone and cell concentration was measured using a crystal violet viability assay performed 48 hours after addition of drug. Points represent the mean of three independent technical replicates. Bars represent SD.
BeWo cells are a human placental cell line that originates from a choriocarcinoma.^31 These cells have been used widely as an in vitro model to study placental uptake of a variety of nutrients including glucose, amino acids, and iron. BeWo choriocarcinoma cells were grown in the presence of increasing concentrations of compound ID #9081579 or vehicle alone. Cell concentration was measured using a crystal violet viability assay performed 48 hours after addition of drug.

3D7 PfGARP KO parasites [5] = test: parasite killing assay, 3D7 PfGARP KO, pLDH readout; type: cell-based, Plasmodium falciparum; conditions: 48 hours
Experimental: as §1, §2

PfGARP (aa 377-560) = target: T1, PfGARP (aa 377-560) (Plasmodium falciparum, UniProt P13816); test: 1H-15N HSQC binding signature
T1 construct: made in house
T1 sequence (P13816 377-560): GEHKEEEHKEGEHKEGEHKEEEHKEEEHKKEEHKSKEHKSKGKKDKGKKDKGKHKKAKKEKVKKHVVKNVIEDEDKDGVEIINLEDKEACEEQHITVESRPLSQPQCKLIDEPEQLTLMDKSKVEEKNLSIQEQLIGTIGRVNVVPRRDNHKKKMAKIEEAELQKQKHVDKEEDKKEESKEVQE
Experimental: Spectra were collected on a 600 MHz Bruker spectrometer at 17° C. from samples with PfGARP (aa 377-560) alone (Red), or in complex with ID #9078424 (Blue).
Two-dimension (2D) heteronuclear single quantum coherence (HSQC) spectroscopy was used to characterize the binding of ID #9078424 to PfGARP.
Using a series of recombinant PfGARP fragments, ^1H-^15N HSQC experiments were performed using PfGARP with and without ID #9078424. These experiments confirmed predictions that PfGARP was largely an intrinsically disordered protein.

[6] = test system: P. falciparum 3D7 strain parasites; conditions: artesunate at 50 and 100 mg/kg, literature ref 36; cited from earlier work
[7] = FIG. 8 legend: drugs immobilized to CM5 sensorchip
[8] = PfGARP-A immobilized to sensorchip, probed with drug
[9] = increasing concentrations, 48 hours

Structure (SMILES) | IC50 ([1]; 48 hours, read-out: IC50) | other results
CC(C(=O)NC1CC1)N(c1ccc2c(c1)OCCO2)S(C)(=O)=O (stereo not drawn) [ID #9083268] | 387 µM | –
CCOc1ccccc1NC(=O)C(C)N(c1ccc2c(c1)OCCO2)S(C)(=O)=O (stereo not drawn) [ID #9077487] | 49.6 µM | –
CSc1cccc(NC(=O)C(C)N(c2ccc3c(c2)OCCO3)S(C)(=O)=O)c1 (stereo not drawn) [ID #9081579] | 1.88 µM | SPR kinetics (PfGARP-A; [7]): fast on, slow off kinetics; SPR kinetics (PfGARP-A; [8]): fast on/off kinetics; IC50 ([1]; Plasmodium falciparum, 3D7, 48 h, read-out: IC50): 1.8 to 4.8 µM; highest non-toxic concentration relative to IC50 for parasites (Human WBC (CD45+); human WBC (CD45+)): 100 fold; concentration causing loss of viability (no loss up to highest concentration tested) (Human WBC (CD45+); human WBC (CD45+), 48 hours): > 400 µM; cytotoxicity to human white blood cells (Human WBC (CD45+); [9]): not cytotoxic; parasite apoptosis (JC-1, TUNEL, ApoStat staining) (P. falciparum parasites): activate parasite apoptosis; parasitemia [2]: rapidly eliminated parasitemia; IC50 (strain INDO): 5 to 8 µM; morphological changes (3D7 parasites): dysmorphic, shrunken features with pyknotic nuclei; morphological changes (3D7 PfGARP KO parasites [3]): not observed; parasitemia [4]: no detectible parasitemia after three days of drug treatment; highest non-toxic concentration relative to IC50 for parasites (BeWo cells; BeWo cells): 50 fold; concentration causing loss of viability (no loss up to highest concentration tested) (BeWo cells; BeWo cells, 48 hours, crystal violet): > 200 µM; growth of BeWo cells (BeWo cells; [9]): does not inhibit the growth of BeWo cells; parasite killing activity in PfGARP KO parasites (3D7 PfGARP KO parasites [5]): no activity
COc1ccc(N(C(C)C(=O)Nc2ccc3c(c2)OCCO3)S(C)(=O)=O)cc1 (stereo not drawn) [ID #7123771] | > 10000 µM | –
CC(C(=O)N1CCOCC1)N(c1ccc2c(c1)OCCO2)S(C)(=O)=O (stereo not drawn) [ID #9075078] | > 10000 µM | –
COc1cccc(NC(=O)C(C)N(c2ccc3c(c2)OCCO3)S(C)(=O)=O)c1 (stereo not drawn) [ID #9085101] | > 10000 µM | –
CS(=O)(=O)N(CC(=O)N1CCCC1)c1ccc2c(c1)OCCO2 [ID #7639273] | > 10000 µM | –
CC(C(=O)Nc1ccccc1Cl)N(c1ccc2c(c1)OCCO2)S(C)(=O)=O (stereo not drawn) [ID #9078424] | 4.39 µM | SPR kinetics (PfGARP-A; [7]): fast on, slow off kinetics; SPR kinetics (PfGARP-A; [8]): fast on/off kinetics; IC50 ([1]; 48 hours): 4.4 µM; parasite apoptosis (JC-1, TUNEL, ApoStat staining) (P. falciparum parasites): activate parasite apoptosis; binding to PfGARP fragment aa 377-560 (PfGARP (aa 377-560)): specific drug binding; parasitemia [4]: no detectible parasitemia after three days of drug treatment
Cc1cccc(NC(=O)C(C)N(c2ccc3c(c2)OCCO3)S(C)(=O)=O)c1 (stereo not drawn) [ID #9083036] | 80.8 µM | –
CC(C(=O)NC1CCCCCC1)N(c1ccc2c(c1)OCCO2)S(C)(=O)=O (stereo not drawn) [ID #9083885] | 57.2 µM | –
CC(C(=O)N1CCCC1)N(c1ccc2c(c1)OCCO2)S(C)(=O)=O (stereo not drawn) [ID #9080993] | > 10000 µM | –
COc1ccccc1NC(=O)C(C)N(c1ccc2c(c1)OCCO2)S(C)(=O)=O (stereo not drawn) [ID #9084682] | > 10000 µM | –
CC(C(=O)Nc1ccccc1)N(c1ccc2c(c1)OCCO2)S(C)(=O)=O (stereo not drawn) [ID #9083000] | 182 µM | –
CC(C(=O)NC1CC2CCC1C2)N(c1ccc2c(c1)OCCO2)S(C)(=O)=O (stereo not drawn) [ID #9085023] | 46.8 µM | –
Cc1cccc(C)c1NC(=O)C(C)N(c1ccc2c(c1)OCCO2)S(C)(=O)=O (stereo not drawn) [ID #9084931] | 68.5 µM | –
Cc1ccccc1NC(=O)C(C)N(c1ccc2c(c1)OCCO2)S(C)(=O)=O (stereo not drawn) [ID #9072806] | 85.3 µM | –
CC(C(=O)NC1CCCCC1)N(c1ccc2c(c1)OCCO2)S(C)(=O)=O (stereo not drawn) [ID #9083607] | 160 µM | –
CS(=O)(=O)N(CC(=O)N1CCOCC1)c1ccc2c(c1)OCCO2 [ID #7641147] | 355 µM | –
CS(=O)(=O)N(CC(=O)N1CCCCCC1)c1ccc2c(c1)OCCO2 [ID #7627706] | 143 µM | –
CC(C(=O)NC1CCCC1)N(c1ccc2c(c1)OCCO2)S(C)(=O)=O (stereo not drawn) [ID #9074663] | 235 µM | –
CS(=O)(=O)N(CC(=O)NCCCN1CCCC1)c1ccc2c(c1)OCCO2 [ID #9146302] | 124 µM | –
CC(C(=O)N1CCN(C)CC1)N(c1ccc2c(c1)OCCO2)S(C)(=O)=O (stereo not drawn) [ID #9072406] | 412 µM | –
CNC(=O)CN(c1ccc2c(c1)OCCO2)S(C)(=O)=O [ID #7626390] | > 10000 µM | –
C[C@H]1[C@H](OC(=O)CCC(=O)O)O[C@@H]2O[C@@]3(C)CC[C@H]4[C@H](C)CC[C@@H]1[C@@]24OO3 [artesunate] | – | parasite clearance [6]: rapid clearance
CC(C(N)=O)N(c1ccc2c(c1)OCCO2)S(C)(=O)=O (stereo not drawn) [ID #9076661] | 132 µM | –
CN(C)CCNC(=O)CN(c1ccc2c(c1)OCCO2)S(C)(=O)=O [ID #9134158] | 134 µM | –
CC(C(=O)N(C)C)N(c1ccc2c(c1)OCCO2)S(C)(=O)=O (stereo not drawn) [ID #9082916] | 509 µM | –
CC(C(=O)N1CCCCC1)N(c1ccc2c(c1)OCCO2)S(C)(=O)=O (stereo not drawn) [ID #9082855] | 70.3 µM | –
CC1CCN(C(=O)C(C)N(c2ccc3c(c2)OCCO3)S(C)(=O)=O)CC1 (stereo not drawn) [ID #9084012] | 80.2 µM | –
